Test results published in paper PMC7892554 (Scientific Reports, 2021).
“Also recorded” adds a separate entry of the source. Where two headings read alike, the source gives them in different places. Positions of bridges follow the written chain, without caps; N, C: chain ends. Residues, ends and D or L forms follow the SMILES beside them.

Columns and labels:
[1] = tested on: M. tuberculosis H37Rv; set-up: species or system BALB/c mice; details: mouse, in vivo
[2] = tested on: M. tuberculosis H37Rv infected mice; assay type: in vivo, BALB/c mice
[3] = in vivo; details: male, BALB/c, mouse, iv, 33 mg/kg
[4] = mouse, in vivo, iv, 33 mg/kg
[5] = tested on: M. smegmatis; assay type: cell-based, Mycobacterium smegmatis mc^2155
[6] = in vivo; cited from earlier work

NNC(=O)c1ccncc1 [isoniazid]
Bacterial (CFU) reduction compared to the untreated control [1]: 92%
Lung tissue destruction / inflammatory score (perivascular, peribronchiolar and alveolar infiltration) ([2]; n = 4–5): decreased tissue destruction; also recorded: preserved alveolar structure best

CC[C@@H](CO)NCCN[C@@H](CC)CO [ethambutol]
Bacterial (CFU) reduction compared to the untreated control [1]: 79%
Lung tissue destruction / inflammatory score (perivascular, peribronchiolar and alveolar infiltration) ([2]; n = 4–5): more severe tissue destruction

CC[C@H](C)[C@@H]1NC(=O)[C@H](CO)NC(=O)[C@H](CCCCN)NC(=O)[C@@H]2CSSC[C@@H](C(=O)N[C@@H](Cc3ccc(O)cc3)C(=O)O)NC(=O)[C@H](CCCCN)NC(=O)[C@@H]3CSSC[C@H](NC(=O)[C@H](CCC(N)=O)NC(=O)[C@H]([C@@H](C)CC)NC(=O)[C@H](CC(=O)O)NC(=O)[C@H](CC(=O)O)NC(=O)[C@H](CCC(=O)O)NC(=O)[C@H](CO)NC(=O)[C@H](Cc4c[nH]c5ccccc45)NC(=O)[C@@H]4CCCN4C(=O)CNC(=O)[C@H](CC(N)=O)NC(=O)[C@@H](NC(=O)CNC(=O)[C@H](Cc4ccccc4)NC(=O)CN)CSSC[C@H](NC(=O)[C@H](Cc4ccc(O)cc4)NC(=O)CNC(=O)CNC(=O)[C@H](CCCCN)NC(=O)[C@H](Cc4ccc(O)cc4)NC(=O)CNC(=O)[C@H](CCCCN)NC1=O)C(=O)N[C@@H](C)C(=O)N[C@@H](CCCNC(=N)N)C(=O)NCC(=O)NCC(=O)N[C@@H](Cc1ccccc1)C(=O)N[C@@H](C(C)C)C(=O)N3)C(=O)N[C@@H](Cc1c[nH]cn1)C(=O)N[C@@H](CC(N)=O)C(=O)N[C@@H](Cc1c[nH]cn1)C(=O)N2 [NZX] (H-GFGCNGPWSEDDIQCHNHCKSIKGYKGGYCARGGFVCKCY-OH; disulfide 4-30, 15-37, 19-39)
Cmax [3]: 61 µg/mL
half-life [3]: 42 min
NZX in the circulation after 240 min [4]: not detected
Bacterial (CFU) reduction compared to the untreated control [1]: 75%
Frequency at which resistant mutants emerge [5]: < 10^–9
Resistant mutants detected [5]: did not detect any resistant mutants
Lung tissue destruction / inflammatory score (perivascular, peribronchiolar and alveolar infiltration) ([2]; mouse, in vivo): decreased tissue destruction

plectasin
Terminal serum elimination half-life [6]: 51 min
